Test results: ChEMBL document CHEMBL1140423, “(6,7-Dimethoxy-2,4-dihydroindeno[1,2-c]pyrazol-3-yl)phenylamines: platelet-derived growth factor receptor tyrosine kinase inhibitors with broad antiproliferative activity against tumor cells” (J Med Chem, 2005)

What was measured:
[1] = target: Platelet-derived growth factor receptor beta (Homo sapiens, UniProt P09619); assay: Inhibitory activity against PDGFRbeta kinase
[2] = system: HUVEC; assay: Antiproliferative activity against LSGS stimulated HUVEC; format: functional, cell-based; settings: Homo sapiens
[3] = system: NCI-H460; assay: Antiproliferative activity against human lung tumor cell line H460; format: functional, cell-based
[4] = system: LoVo; assay: Antiproliferative activity against human colon tumor cell line LoVo; format: functional, cell-based
[5] = system: LNCaP; assay: Antiproliferative activity against human prostate tumor cell line LnCAP; format: functional, cell-based
[6] = system: PC-3; assay: Antiproliferative activity against human prostate tumor cell line PC3; format: functional, cell-based
[7] = system: T47D; assay: Antiproliferative activity against human breast tumor cell line T47D; format: functional, cell-based
[8] = system: A-375; assay: Antiproliferative activity against human melanoma tumor cell line A375; format: functional, cell-based
[9] = system: ASPC1; assay: Antiproliferative activity against human pancreatic tumor cell line AsPC1; format: functional, cell-based
[10] = system: U-87 MG; assay: Antiproliferative activity against human glioma tumor cell line U87MG; format: functional, cell-based, U-87MG ATCC
[11] = target: Platelet-derived growth factor receptor alpha (Homo sapiens, UniProt P16234); assay: Inhibitory activity against PDGFRalpha
[12] = target: Vascular endothelial growth factor receptor (Homo sapiens, UniProt P17948+P35916+P35968); assay: Inhibitory activity against VEGFR; format: protein assay
[13] = target: Receptor tyrosine-protein kinase erbB-2 (Homo sapiens, UniProt P04626); assay: Inhibitory activity against HER2
[14] = target: Fibroblast growth factor receptor 1 (Homo sapiens, UniProt P11362); assay: Inhibitory activity against bFGFR1
[15] = target: Cyclin-dependent kinase 1 (Homo sapiens, UniProt P06493); assay: Inhibitory activity against CDK1
[16] = target: Cyclin-dependent kinase 2 (Homo sapiens, UniProt P24941); assay: Inhibitory activity against CDK2
[17] = target: Cyclin-dependent kinase 4 (Homo sapiens, UniProt P11802); assay: Inhibitory activity against CDK4
[18] = target: Cyclin-dependent kinase 7 (Homo sapiens, UniProt P50613); assay: Inhibitory activity against CDK7
[19] = target: Proto-oncogene tyrosine-protein kinase Src (Homo sapiens, UniProt P12931); assay: Inhibitory activity against c-SRC
[20] = target: Tyrosine-protein kinase Fyn (Homo sapiens, UniProt P06241); assay: Inhibitory activity against FYN
[21] = target: cAMP-dependent protein kinase (PKA) (Homo sapiens, UniProt P22694+P17612+P22612); assay: Inhibitory activity against PKA; format: protein assay
[22] = target: Glycogen synthase kinase-3 (Homo sapiens, UniProt P49840+P49841); assay: Inhibitory activity against GSK3; format: protein assay
[23] = target: Mitogen-activated protein kinase 1 (Homo sapiens, UniProt P28482); assay: Inhibitory activity against MAPK
[24] = target: Insulin receptor (Homo sapiens, UniProt P06213); assay: Inhibitory activity against IRK
[25] = target: Focal adhesion kinase 1 (Homo sapiens, UniProt Q05397); assay: Inhibitory activity against FAK
[26] = target: Casein kinase II (Homo sapiens, UniProt P19784+P67870+P68400); assay: Inhibitory activity against Casein Kinase 2; format: protein-complex assay
[27] = Inhibitory activity against Calmodulin Kinase

Sequence of Platelet-derived growth factor receptor beta (P09619 whole entry): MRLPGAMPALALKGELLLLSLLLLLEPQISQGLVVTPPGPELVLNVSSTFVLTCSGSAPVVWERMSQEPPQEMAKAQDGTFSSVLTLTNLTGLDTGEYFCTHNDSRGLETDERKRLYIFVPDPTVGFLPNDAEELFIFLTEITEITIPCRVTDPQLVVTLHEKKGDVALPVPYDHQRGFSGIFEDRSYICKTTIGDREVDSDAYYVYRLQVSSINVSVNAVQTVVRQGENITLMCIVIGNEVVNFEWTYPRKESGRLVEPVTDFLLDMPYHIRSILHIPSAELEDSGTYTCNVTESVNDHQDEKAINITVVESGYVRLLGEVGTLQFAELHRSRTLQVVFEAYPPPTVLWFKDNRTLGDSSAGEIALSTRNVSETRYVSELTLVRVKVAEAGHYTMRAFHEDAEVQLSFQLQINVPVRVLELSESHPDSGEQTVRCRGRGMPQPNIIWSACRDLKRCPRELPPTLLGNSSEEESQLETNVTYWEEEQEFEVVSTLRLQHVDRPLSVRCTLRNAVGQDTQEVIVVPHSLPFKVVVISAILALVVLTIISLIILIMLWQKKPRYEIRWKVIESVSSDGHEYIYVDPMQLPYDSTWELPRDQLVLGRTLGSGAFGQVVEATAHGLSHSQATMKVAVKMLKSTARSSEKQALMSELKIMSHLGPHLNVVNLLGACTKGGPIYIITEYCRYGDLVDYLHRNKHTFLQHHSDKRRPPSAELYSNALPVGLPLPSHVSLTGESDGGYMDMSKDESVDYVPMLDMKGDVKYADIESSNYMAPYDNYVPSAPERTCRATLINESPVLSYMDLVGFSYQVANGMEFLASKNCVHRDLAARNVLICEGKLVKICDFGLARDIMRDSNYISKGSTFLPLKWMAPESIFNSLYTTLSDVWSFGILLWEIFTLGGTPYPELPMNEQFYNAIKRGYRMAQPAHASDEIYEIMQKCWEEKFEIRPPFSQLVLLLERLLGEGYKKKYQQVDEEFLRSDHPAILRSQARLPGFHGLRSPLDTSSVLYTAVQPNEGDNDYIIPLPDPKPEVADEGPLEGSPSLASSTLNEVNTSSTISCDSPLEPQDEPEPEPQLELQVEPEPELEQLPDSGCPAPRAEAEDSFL
Sequence of Insulin receptor (P06213 28-758 limits assumed): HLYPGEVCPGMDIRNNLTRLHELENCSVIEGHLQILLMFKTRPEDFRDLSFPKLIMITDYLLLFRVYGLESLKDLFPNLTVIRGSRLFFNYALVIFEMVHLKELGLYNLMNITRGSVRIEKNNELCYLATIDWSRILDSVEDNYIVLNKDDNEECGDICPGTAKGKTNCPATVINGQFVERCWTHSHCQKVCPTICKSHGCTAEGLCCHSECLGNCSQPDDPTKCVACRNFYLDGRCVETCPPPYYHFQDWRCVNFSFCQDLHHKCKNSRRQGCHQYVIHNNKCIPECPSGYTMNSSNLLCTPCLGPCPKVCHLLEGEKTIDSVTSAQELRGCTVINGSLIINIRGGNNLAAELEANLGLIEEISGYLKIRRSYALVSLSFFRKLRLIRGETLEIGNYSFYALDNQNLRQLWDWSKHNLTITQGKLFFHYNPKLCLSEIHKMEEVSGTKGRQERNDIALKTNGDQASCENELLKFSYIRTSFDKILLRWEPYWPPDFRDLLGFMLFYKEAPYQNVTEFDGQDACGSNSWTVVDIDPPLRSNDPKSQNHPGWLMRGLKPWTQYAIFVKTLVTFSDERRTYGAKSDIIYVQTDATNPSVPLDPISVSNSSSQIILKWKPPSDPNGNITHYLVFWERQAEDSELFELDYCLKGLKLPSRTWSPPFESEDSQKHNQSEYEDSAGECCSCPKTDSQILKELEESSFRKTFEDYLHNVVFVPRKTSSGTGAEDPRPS
Sequence of Insulin receptor (P06213 763-1382 limits assumed): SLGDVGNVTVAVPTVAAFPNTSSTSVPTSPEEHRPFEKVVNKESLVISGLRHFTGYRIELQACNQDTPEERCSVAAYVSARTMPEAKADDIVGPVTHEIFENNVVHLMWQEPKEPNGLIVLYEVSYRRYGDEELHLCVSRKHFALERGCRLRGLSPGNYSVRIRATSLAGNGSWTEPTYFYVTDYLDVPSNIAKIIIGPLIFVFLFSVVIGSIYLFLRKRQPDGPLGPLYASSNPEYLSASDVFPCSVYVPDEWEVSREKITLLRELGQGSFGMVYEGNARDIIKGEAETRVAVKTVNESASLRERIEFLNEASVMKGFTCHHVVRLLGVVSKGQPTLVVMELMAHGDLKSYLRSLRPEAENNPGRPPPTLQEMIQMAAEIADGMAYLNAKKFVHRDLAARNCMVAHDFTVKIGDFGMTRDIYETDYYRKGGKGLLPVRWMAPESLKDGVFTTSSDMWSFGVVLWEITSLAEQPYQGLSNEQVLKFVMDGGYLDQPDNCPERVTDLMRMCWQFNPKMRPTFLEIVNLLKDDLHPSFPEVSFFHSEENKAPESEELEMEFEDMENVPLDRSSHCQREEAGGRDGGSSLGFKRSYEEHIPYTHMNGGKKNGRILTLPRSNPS
Sequence of Casein kinase II (P67870 whole entry): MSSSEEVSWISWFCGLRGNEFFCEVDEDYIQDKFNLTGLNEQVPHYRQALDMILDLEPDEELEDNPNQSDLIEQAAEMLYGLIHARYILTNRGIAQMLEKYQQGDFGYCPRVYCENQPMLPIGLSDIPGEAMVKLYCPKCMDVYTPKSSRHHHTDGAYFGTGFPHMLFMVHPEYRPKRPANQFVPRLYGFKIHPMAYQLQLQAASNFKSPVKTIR
Sequence of Casein kinase II (P68400 whole entry): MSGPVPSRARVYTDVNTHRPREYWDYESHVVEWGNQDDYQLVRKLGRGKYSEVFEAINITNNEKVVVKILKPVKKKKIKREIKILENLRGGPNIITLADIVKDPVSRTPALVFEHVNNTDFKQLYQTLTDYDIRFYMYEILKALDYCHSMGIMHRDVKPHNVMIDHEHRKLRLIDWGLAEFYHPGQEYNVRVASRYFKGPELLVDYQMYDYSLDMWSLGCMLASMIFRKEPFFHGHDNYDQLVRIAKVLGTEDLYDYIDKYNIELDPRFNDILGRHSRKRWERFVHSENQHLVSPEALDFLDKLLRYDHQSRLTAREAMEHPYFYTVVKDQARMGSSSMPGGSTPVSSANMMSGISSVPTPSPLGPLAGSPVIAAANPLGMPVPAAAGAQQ
Sequence of Casein kinase II (P19784 whole entry): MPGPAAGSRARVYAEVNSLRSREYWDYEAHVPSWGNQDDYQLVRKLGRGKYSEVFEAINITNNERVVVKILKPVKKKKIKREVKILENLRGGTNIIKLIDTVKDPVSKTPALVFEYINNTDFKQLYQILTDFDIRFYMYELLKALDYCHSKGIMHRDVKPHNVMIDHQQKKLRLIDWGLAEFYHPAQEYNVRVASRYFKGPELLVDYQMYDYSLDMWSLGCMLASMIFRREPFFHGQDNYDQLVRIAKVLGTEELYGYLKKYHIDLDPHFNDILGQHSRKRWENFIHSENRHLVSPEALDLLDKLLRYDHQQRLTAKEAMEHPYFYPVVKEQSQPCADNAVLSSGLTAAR
Sequence of Focal adhesion kinase 1 (Q05397 whole entry): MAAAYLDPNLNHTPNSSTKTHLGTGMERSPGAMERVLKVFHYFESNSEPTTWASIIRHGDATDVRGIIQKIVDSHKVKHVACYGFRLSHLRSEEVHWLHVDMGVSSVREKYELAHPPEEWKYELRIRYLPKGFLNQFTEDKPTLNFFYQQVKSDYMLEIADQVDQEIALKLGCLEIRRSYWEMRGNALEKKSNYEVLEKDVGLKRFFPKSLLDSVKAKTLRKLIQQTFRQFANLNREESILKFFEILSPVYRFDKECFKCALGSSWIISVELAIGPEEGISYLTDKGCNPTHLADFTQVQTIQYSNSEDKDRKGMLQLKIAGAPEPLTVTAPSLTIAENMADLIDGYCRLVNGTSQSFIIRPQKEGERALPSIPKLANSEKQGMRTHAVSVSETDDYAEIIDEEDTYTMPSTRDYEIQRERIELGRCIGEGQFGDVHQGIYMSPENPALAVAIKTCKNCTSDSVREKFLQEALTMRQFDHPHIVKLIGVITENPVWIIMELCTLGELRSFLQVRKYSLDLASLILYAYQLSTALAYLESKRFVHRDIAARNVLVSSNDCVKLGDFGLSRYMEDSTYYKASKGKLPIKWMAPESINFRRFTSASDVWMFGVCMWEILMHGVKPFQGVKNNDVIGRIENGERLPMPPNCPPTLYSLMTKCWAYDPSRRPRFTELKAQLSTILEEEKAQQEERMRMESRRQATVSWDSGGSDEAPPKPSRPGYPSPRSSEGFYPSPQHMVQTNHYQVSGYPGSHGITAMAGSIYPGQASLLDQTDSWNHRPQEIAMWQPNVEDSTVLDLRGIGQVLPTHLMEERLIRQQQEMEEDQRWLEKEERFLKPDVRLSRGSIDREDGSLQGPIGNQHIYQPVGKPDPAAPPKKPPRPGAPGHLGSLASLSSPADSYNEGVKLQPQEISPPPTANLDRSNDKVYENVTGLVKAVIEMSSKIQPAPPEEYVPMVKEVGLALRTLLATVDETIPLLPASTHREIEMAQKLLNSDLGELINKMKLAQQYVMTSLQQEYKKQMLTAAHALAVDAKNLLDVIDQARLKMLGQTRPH
Sequence of Mitogen-activated protein kinase 1 (P28482 whole entry): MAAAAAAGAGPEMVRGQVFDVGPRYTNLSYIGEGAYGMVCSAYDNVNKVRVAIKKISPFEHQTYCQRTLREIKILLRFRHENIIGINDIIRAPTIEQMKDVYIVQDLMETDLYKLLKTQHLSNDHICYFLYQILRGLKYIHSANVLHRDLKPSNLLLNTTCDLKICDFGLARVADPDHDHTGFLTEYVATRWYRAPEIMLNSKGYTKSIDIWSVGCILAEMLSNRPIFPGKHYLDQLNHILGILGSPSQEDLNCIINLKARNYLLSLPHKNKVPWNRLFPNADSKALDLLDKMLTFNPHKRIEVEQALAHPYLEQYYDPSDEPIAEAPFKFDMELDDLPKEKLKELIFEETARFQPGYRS

| Compound | IC50 [1] | IC50 [2] | IC50 [3] | IC50 [4] | IC50 [5] | IC50 [6] | IC50 [7] | IC50 [8] | IC50 [9] | IC50 [10] | other results |
| --- | --- | --- | --- | --- | --- | --- | --- | --- | --- | --- | --- |
| COc1cc2c(cc1OC)-c1n[nH]c(Nc3ccc(Cl)c(Cl)c3)c1C2 | 0.41 µM |  |  |  |  |  |  |  |  |  |  |
| COc1cc2c(cc1OC)-c1n[nH]c(Nc3cccc(F)c3)c1C2 | 0.0042 µM | 4.87 µM | 0.01 µM | 0.017 µM | 0.009 µM | 0.027 µM | 0.032 µM | 0.007 µM | 0.592 µM | 13 µM | IC50 [11]: 0.045 µM; IC50 [12]: 3.1 µM; IC50 [13]: > 10 µM; IC50 [14]: 45.8 µM; IC50 [15]: > 100 µM; IC50 [16]: > 10 µM; IC50 [17]: > 100 µM; IC50 [18]: 56.7 µM; IC50 [19]: 0.185 µM; IC50 [20]: 0.378 µM; IC50 [21]: > 100 µM; IC50 [22]: 13 µM; IC50 [23]: > 100 µM; IC50 [24]: > 100 µM; IC50 [25]: > 100 µM; IC50 [26]: > 100 µM; IC50 [27]: > 10 µM |
| COc1cccc(Nc2[nH]nc3c2Cc2cc(OC)c(OC)cc2-3)c1 |  | 0.011 µM | 0.004 µM | 0.004 µM | 0.005 µM |  | 0.033 µM | 0.004 µM | 0.355 µM | > 100 µM |  |
| COc1cc2c(cc1OC)-c1n[nH]c(Nc3cccc(Br)c3)c1C2 | 0.005 µM | 1.48 µM | 0.006 µM | 0.006 µM | 0.002 µM | 0.018 µM | 0.037 µM | 0.006 µM | 0.331 µM | > 100 µM |  |
| COc1cc2c(cc1OC)-c1[nH]nc(-c3ccccc3)c1C2 | 0.017 µM | 1.39 µM | 8.4 µM | 2.7 µM | 1.2 µM | 31.2 µM | 4.41 µM | 8.85 µM | 6.82 µM | > 50 µM |  |
| COc1cc2c(cc1OC)-c1n[nH]c(Nc3cccc(C(F)(F)F)c3)c1C2 | 0.038 µM | 2.5 µM | 0.031 µM | 0.028 µM | 0.255 µM | 0.021 µM | 0.44 µM | 0.035 µM | 0.29 µM | > 100 µM |  |
| COc1cc2c(cc1OC)-c1n[nH]c(Nc3cccc(C(=O)O)c3)c1C2 | > 0.8 µM |  |  |  |  |  |  |  |  |  |  |
| COc1cc2c(cc1OC)-c1n[nH]c(Nc3ccc(Cl)cc3Cl)c1C2 | 5.42 µM |  |  |  |  |  |  |  |  |  |  |
| COc1cc2c(cc1OC)-c1n[nH]c(Nc3cccc(Cl)c3)c1C2 |  |  |  |  |  |  |  |  |  | 24 µM |  |
| COc1cc2c(cc1OC)-c1n[nH]c(Nc3cc(Cl)cc(Cl)c3)c1C2 | 0.31 µM |  |  |  |  |  |  |  |  |  |  |
| COc1cc2c(cc1OC)-c1n[nH]c(Nc3cccc(C)c3)c1C2 |  | 0.008 µM | 0.029 µM | 0.019 µM | 0.001 µM |  | 0.042 µM | 0.015 µM | 4.45 µM | > 100 µM |  |
| COC(=O)c1cccc(Nc2[nH]nc3c2Cc2cc(OC)c(OC)cc2-3)c1 | 0.033 µM |  |  |  |  |  |  |  |  |  |  |
| COc1cccc2c1Cc1c-2n[nH]c1Nc1ccccc1 |  | 0.283 µM | 2.8 µM | 0.798 µM | 1.7 µM | 7.34 µM | 4.7 µM | 1.19 µM | > 10 µM | > 100 µM |  |
| COc1ccc2c(c1)-c1n[nH]c(Nc3ccccc3)c1C2 |  |  |  |  | 14.4 µM | > 10 µM | > 10 µM | > 50 µM | > 10 µM | > 100 µM |  |
| COc1cc2c(cc1OC)-c1n[nH]c(Nc3cc(Cl)ccc3Cl)c1C2 | 6.22 µM |  |  |  |  |  |  |  |  |  |  |
| COc1cc2c(cc1OC)-c1n[nH]c(Nc3ccccc3)c1C2 | 0.009 µM | 0.031 µM | 0.353 µM | 0.124 µM | 0.6 µM | 0.108 µM | 0.42 µM | 0.062 µM | 2.16 µM | 21 µM |  |
